The values below come from publication PMC9964938, “Synthesis and Properties of Sucrose- and Lactose-Based Aromatic Ester Surfactants as Potential Drugs Permeability Enhancers” (Pharmaceuticals, 2023).

For data set [1], the system named is Calu-3 monolayers. More on the design: method as in PMID 29970849. As to conditions: Calu-3 cells, non-cytotoxic concentration, reversible; cited from earlier work.
Data set [2] deals with Calu-3 monolayers. Kind of data set: TEER measurement. In kind it is cell-based, human. As to conditions: Calu-3 cells; for effect on TEER: surfactant 4 mM in HBSS, 3 h; for decrease in TEER with respect to basal value: surfactant 4 mM, reversible. As for the experimental part: TEER studies were performed in Calu-3 cells (Figure 4) to preliminarily evaluate the potential use of the synthesized sugar esters as absorption enhancers. […] .
Calu-3 cells were seeded on filter inserts Transwell® at ~200,000 cells per insert. The cells were cultured in Dulbecco Modified Eagle Medium (DMEM)-F12 to confluence for around three weeks using an air–liquid culture condition. The culture medium was changed every 48 h. […] Baseline TEER was recorded following 30 min of equilibration in HBSS. […] The cells were incubated with the samples or HBSS as a control for 3 h. During this period, TEER was measured every 30 min. The samples were then removed and the cells were washed extensively using HBSS. Culture medium was added to the basolateral chamber and a further measurement of TEER was taken at 24 h following sample application to establish TEER reversibility. The change in TEER was reported as a percentage relative to the baseline value.

Data set [3] can be described thus: CMC by pyrene fluorescence spectroscopy. It is filed as physicochemical. The note with it: pyrene I/III peak ratio, aqueous solution, 25 °C. The source says: Pyrene is a common fluorescence probe, widely employed to investigate the aggregation state of surfactant in aqueous solution, as its emission properties are strongly influenced by the polarity of the microenvironment. Specifically, a decrease in the ratio between I and III peaks is observed when the hydrophobicity increases in the surroundings of pyrene as a result of the aggregation of surfactants into micelles or supramolecular aggregates. […] As is common for surfactants, the concentration at which aggregation in aqueous solution occurs is strongly dependent on the hydrophilicity/hydrophobicity balance between the surfactant head and tail. Specifically, changes in the hydrophobicity of the surfactant tail exert a marked effect on the self-assembling properties for a surfactant bearing the same polar head. On the contrary, the variation in the sugar head has a minor effect.
The pyrene emissions in the surfactant solutions at different concentrations (0.03–4 mM) were measured using a LS 55 fluorescence spectrometer (PerkinElmer, Waltar, MA, USA) equipped with a thermostatic bath HAAKE C25P (Artisan Scientific Corporation, Champaign, IL, USA). For the analyses, three microliters of the pyrene solution in CH3OH (2 μM) were added to each of the aqueous surfactant solutions. The excitation wavelength was 334 nm. Ten acquisitions were recorded for each solution in the range of 200–700 nm at a temperature of 25 °C. The peak intensity I (λ = 372 nm) to III (λ = 384 nm) ratio was plotted against the surfactant concentrations. CMC values were calculated from the center of the sigmoid by fitting the experimental data through the Boltzmann nonlinear regression (GraphPad Prism 6 software) according to the following equation: bottom+(top−bottom)/1+10^[(logCMC−x)hill slope] where the top and bottom are the plateau of the curve and the hill slope is the steepness.

Data set [4] is described as follows: CMC by dynamic light scattering (counts). It is filed as physicochemical. As to conditions: counts vs concentration, 25 °C. From the text:
The DLS from the counts analysis confirmed the self-assembling properties of the amphiphiles analyzed as evidenced by the fluorescence measurements. Figure 2b reports the variation in the scattering intensities to the detector (kCps) as a function of the surfactant concentration.
As unimers, instead, the hydrodynamic sizes of the surfactant molecules were too small and the scattering properties of the solutions were not markedly different from those of the medium.
The scattering intensity to the detector (counts, kCps) was measured for different concentrations (0.03–4 mM) of surfactant solution using a Malvern Zetasizer Nano S (Malvern, Worcestershire, UK). Measurements were performed at 25 °C at a fixed laser position (4.65) and attenuation (11). CMC values were calculated from counts versus concentration plots by fitting the experimental data using the segmental linear regression model (GraphPad Prism 6 software).

For another data set, the system named is Calu-3 cells. Kind of data set: MTT cell viability assay. In kind it is cell-based, human. The note with it: 3 h incubation. As to the method: All the compounds were tested to evaluate their cytotoxicity profile on Calu-3 cells. The MTT colorimetric assay, based on the reduction of a yellow tetrazolium salt MTT to purple formazan crystals by metabolically active cells, was used to measure the cellular metabolic activity as an indicator of cell viability, proliferation, and cytotoxicity. Indeed, the viable cells contain NAD(P)H-dependent oxidoreductase enzymes, which reduce MTT to formazan. […] Moreover, the LDH release assay, used to assess the level of plasma membrane damage in a cell population, was performed to evaluate the cytotoxicity of the sugar esters. LDH is in fact a stable enzyme found in all cell types and is rapidly released into the cell culture medium following damage to the plasma membrane that occurs after cell damage or death. […]
Calu-3 cells were seeded on 96-well plates at ~50,000 cells per well and were incubated to attain at least 80% confluence before the experiment. Prior to the assay, the culture medium was removed and replaced with different concentrations of surfactants (0.03 to 4.5 mM for the fluorescence spectroscopy and DLS analysis) in Hank’s balanced salt solution (HBSS). […] The supernatant was collected for the LDH assay and the cell viability was measured with the MTT assay according to the manufacturers’ instructions, with at least three repeats for each sample.
(In general: Formazan colour is commonly taken as a measure of viable cells.)

Data set [5] has as its system Calu-3 monolayers. Kind of data set: FITC-dextran in vitro cell permeability study. As to conditions: surfactant 4 mM.
Method: Cell monolayers with TEER over 800 Ω were used in these studies to ensure the integrity of the monolayers. FITC-dextran MW 4000 was used as a model macromolecular drug. Prior to sample application, the culture medium was removed, and the cell layers were washed with HBSS. The cells were equilibrated in HBSS for 30 min. Sucrose ester solutions at 4 mM and dextran at a final concentration of 0.5 mg/mL in HBSS were applied to the apical side of the cells. HBSS was added to the basolateral side. A basolateral solution of 100 µL was collected at 30, 60, 90, 120, 150, and 180 min after sample application and replaced with an equivalent volume of fresh HBSS. The amount of dextran permeating the cell monolayers in 3 h was quantified by spectrofluorometric analysis.

As for `CCCCCCCCCCCC(=O)OCC1OC(OC2C(CO)OC(O)C(O)C2O)C(O)C(O)C1O` (stereo not shown) [6′-lactose laurate], in the data set on Calu-3 monolayers [1], the “TEER, % of the baseline value after decrease” value is ~ 25%.
Consider `O=C(Cc1ccccc1)OC[C@H]1O[C@H](O[C@]2(CO)O[C@H](CO)[C@@H](O)[C@@H]2O)[C@H](O)[C@@H](O)[C@@H]1O` [URB1480, β-D-fructofuranosyl 6-O-(2-Phenylethanoyl)-α-D-glucopyranoside], for which the “effect on TEER” value in the data set on Calu-3 monolayers [2] is “only poorly affected TEER”. The “Fluorescence Spectroscopy CMC” value in data set [3] came to 0.861 ± 0.076 mM. In addition, the “Dynamic Light Scattering CMC” value in data set [4] is reported as 0.791 ± 0.045 mM.
With `O=C(OC[C@H]1O[C@H](O[C@]2(CO)O[C@H](CO)[C@@H](O)[C@@H]2O)[C@H](O)[C@@H](O)[C@@H]1O)c1ccc(-c2ccccc2)cc1` [URB1481, β-D-fructofuranosyl 6-O-[2-(4-Phenyl)benzoyl]-α-D-glucopyranoside], in the data set with Calu-3 monolayers [2], the “effect on TEER” value was “most effective surfactants for decreasing TEER” and the “decrease in TEER with respect to basal value” is ~ 30%. Also, the “cell viability (MTT)” value with Calu-3 cells (highest tested concentration of 4.5 mM) is recorded as “above 70%”. The “permeation enhancing effect on FITC-dextran Papp” value in the data set on Calu-3 monolayers [5] (Calu-3 cell layers, FITC-dextran MW 4000 0.5 mg/mL) is on record as “more prominent permeation enhancing effect”. Further, the “increase in FITC-dextran permeability vs control” value with Calu-3 monolayers [5] (Calu-3 cells, non-statistically significant vs control) is “three-fold increase”. Also, the “Fluorescence Spectroscopy CMC” value in data set [3] is 0.305 ± 0.091 mM. For the same compound, in data set [4], the “Dynamic Light Scattering CMC” value came out at 0.329 ± 0.023 mM.
In the case of `O=C(Cc1ccc(-c2ccccc2)cc1)OC[C@H]1O[C@H](O[C@]2(CO)O[C@H](CO)[C@@H](O)[C@@H]2O)[C@H](O)[C@@H](O)[C@@H]1O` [URB1482, β-D-fructofuranosyl 6-O-[2-(4-Phenyl)phenylethanoyl]-α-D-glucopyranoside], the “effect on TEER” value in the data set with Calu-3 monolayers [2] is “moderate action”. For the same compound, in data set [3], the “Fluorescence Spectroscopy CMC” value was 0.095 ± 0.015 mM. In data set [4], the “Dynamic Light Scattering CMC” value was 0.181 ± 0.026 mM.
For Lactose p-biphenyl acetate [URB1421], the “effect on TEER” value in the data set on Calu-3 monolayers [2] was “moderate action”. Moreover, the “Fluorescence Spectroscopy CMC” value in data set [3] is reported as 0.110 ± 0.017 mM. Further, the “Dynamic Light Scattering CMC” value in data set [4] stood at 0.259 ± 0.063 mM.
Turning to Lactose p-phenyl benzoate [URB1420], in the data set on Calu-3 monolayers [2], the “effect on TEER” value was “most effective surfactants for decreasing TEER” and the “decrease in TEER with respect to basal value” is ~ 30%. Besides, the “Fluorescence Spectroscopy CMC” value in data set [3] is recorded as 0.270 ± 0.015 mM. Besides, the “Dynamic Light Scattering CMC” value in data set [4] was 0.344 ± 0.034 mM.
Lactose phenyl acetate [URB1419]: the “effect on TEER” value in the data set with Calu-3 monolayers [2] is recorded as “moderate action”. Further, the “cell viability (MTT), lowest level reached” value with Calu-3 cells (0.03 to 4.5 mM) was not below 70%. Besides, the “Fluorescence Spectroscopy CMC” value in data set [3] is 0.753 ± 0.084 mM. Moreover, in data set [4], the “Dynamic Light Scattering CMC” value is recorded as 0.729 ± 0.075 mM.
